Measurements published in publication PMC10500001, “Dual hypoxia-responsive supramolecular complex for cancer target therapy” (Nature Communications, 2023).
“And” between values parts separate entries of the source, which are not always exact repeats. Equal values may be shown once.

Experiments:
PANC1 cells [1] = test: Cellular uptake mechanism with endocytosis inhibitors (flow cytometry); type: cell-based, human; conditions: uptake of the SAC5A complex with the inhibitor, 4 replicates
Protocol: To examine the cellular uptake mechanism of SAC5A complex, PANC1 cells (3 × 10^5 cells/well) were seeded into the six-well plates and incubated overnight. The cells were pretreated with different endocytosis inhibitors for 1 h: chlorpromazine (CHP, 20 μM, an inhibitor of clathrin-mediated endocytosis), Amiloride (AMI, 500 μM, an inhibitor of macropinocytosis), Genistein (GEN, 200 μM, an inhibitor of caveolae-mediated endocytosis), methyl-β-cyclodextrin (M-β-CD, 5 mM, an inhibitor of lipid rafts-mediated endocytosis), the cells were also pre-incubated under 4 °C for 1 h (energy-dependent endocytosis). […] After that, the cells were collected and washed three times with PBS, and then analyzed by flow cytometry. All experiments were carried out four times. […]
Chlorpromazine (CHP): inhibitor of clathrin-mediated endocytosis; amiloride (AMI): inhibitor of macropinocytosis; Genistein (GEN): inhibitor of caveolae-mediated endocytosis; Methyl-β-cyclodextrin (M-β-CD): lipid rafts-mediated endocytosis; 4 °C: energy-mediated endocytosis. Data are presented as […]

PANC1 cells [2] = test: CLSM fluorescence imaging in living cells under normoxic and hypoxic conditions; type: cell-based, human; conditions: 10 μM
Protocol: In this assay, SBE-β-CD was employed to generate CY5-DM@SBE-β-CD as a benchmark. […] The increased fluorescence manifested the hypoxia-selective release performance of the supramolecular complex.
PANC1 cells (1 × 10^5 cells/well) were seeded into the confocal imaging chambers. […] After a 6 h incubation under normoxic conditions, the culture medium was exchanged with fresh medium. Thereafter, the cells were incubated at 37 °C for 18 h under either normoxic or hypoxic conditions, respectively. Subsequently, the cells were fixed in 4% paraformaldehyde (PFA; Biosharp, Hefei, China) for 15 min, washed with PBS buffer three times and then imaged using CLSM. Cell nuclei were counterstained with DAPI (C0060, Solarbio, Beijing, China) for 5 min.

PANC1 tumor-bearing mice = test: In vivo fluorescence imaging; conditions: single mouse
Protocol: For animals and tumor model, male BALB/c nude mice at 5–6 weeks were purchased from Vital River Laboratory Animal Technology (Beijing, China). All animal experiments were performed according to the institutional animal care guidelines established by the Institutional Animal Care and Use Committee of Nankai University. To establish the PANC1 tumor-bearing mouse model, 1 × 10^6 PANC1 cells were injected subcutaneously into the right chest of BALB/c nude mice. After the tumor grows to a suitable size, the tumor was divided into small pieces and then subcutaneously incubated into the right chest of other mice. […] The ex vivo fluorescence imaging of major organs at 24 h post injection was imaged by IVIS. Fluorescent images were analyzed using Living Image 3.1 (Caliper Life Sciences).

[3] = Competitive fluorescence titration of LCG@SC5A with NMP-BE; type: binding; conditions: HEPES pH 7.4
Protocol: The complexation of SAC5A with reporter dye (RhB) was measured by direct fluorescence titrations. A mixed solution containing known amounts of SAC5A and RhB was sequentially injected into 2.50 mL RhB solution in a quartz cuvette. The dye concentrations in mixed solution and cuvette are the same to keep dye concentration constant in the course of titrations. The fluorescence intensity was measured (λex = 554 nm for RhB) before the first addition and after every addition until a plateau was reached. By fitting the fluorescence intensity (λem = 575 nm for RhB) according to a 1:1 host-guest binding stoichiometry, the association constant was obtained. SC5A (LCG) and SBE-β-CD (NR) used the same method.
The complexation of SAC5A with NMP-BE was measured by competitive fluorescence titrations. […] The fluorescence intensity was measured (λex = 554 nm for RhB) before the first addition and after every addition. The association constant was obtained by fitting fluorescence intensity (λem = 575 nm for RhB) according to a 1:1 competitive binding model. […]
2.8 Fluorescence titrations of SC5A and SBE-β-CD with NMP-BE
Supplementary Figure 14. Competitive fluorescence titration of LCG@SC5A (1.0/1.0 µM) with NMP-BE (up to 80 µM) in HEPES buffer (10 mM, pH = 7.4) at 25 ℃, λex =

[4] = parameters: method as in earlier work; conditions: ref 2 of the supplement; cited from earlier work
[5] = parameters: method as in PMID 17268062; conditions: cited from earlier work

N=C(N)NC(=O)c1nc(Cl)c(N)nc1N [AMI]
cellular uptake relative to Ctrl (flow cytometry) in presence of endocytosis inhibitor (PANC1 cells [1]): 144.29 and 129.79 and 106.33 and 103.16

CN(C)CCCN1c2ccccc2Sc2ccc(Cl)cc21 [CHP]
cellular uptake relative to Ctrl (flow cytometry) in presence of endocytosis inhibitor (PANC1 cells [1]): 134.50 and 125.70 and 108.52 and 108.27

CN1C(=CC=CC=CC2=[N+](C)c3ccccc3C2(C)C)C(C)(C)c2ccccc21 [CY5-DM, 1,1’,3,3,3’,3’-hexamethylindodicarbocyanine]
difference in fluorescence intensities normoxic versus hypoxic (PANC1 cells [2]): no significant difference | FL intensity of the tumor in vivo (PANC1 tumor-bearing mice; 1h post iv injection): 1.80E+09 and 1.62E+09 | FL intensity of the tumor in vivo (PANC1 tumor-bearing mice; 3h post iv injection): 1.74E+09 and 1.60E+09 | FL intensity of the tumor in vivo (PANC1 tumor-bearing mice; 6h post iv injection): 1.41E+09 and 1.34E+09 and 1.52E+09 | FL intensity of the tumor in vivo (PANC1 tumor-bearing mice; 12h post iv injection): 1.33E+09 and 1.26E+09 | FL intensity of the tumor in vivo (PANC1 tumor-bearing mice; 24h post iv injection): 8.57E+08 and 6.21E+08 and 9.14E+08

O=c1c(-c2ccc(O)cc2)coc2cc(O)cc(O)c12 [GEN]
cellular uptake relative to Ctrl (flow cytometry) in presence of endocytosis inhibitor (PANC1 cells [1]): 88.04 and 87.28 and 70.24 and 68.53

O=S(=O)(O)c1cc2c(O)c(c1)Cc1cc(S(=O)(=O)O)cc(c1O)Cc1cc(S(=O)(=O)O)cc(c1O)Cc1cc(S(=O)(=O)O)cc(c1O)Cc1cc(S(=O)(=O)O)cc(c1O)C2 [SC5A, sulfonated calix[5]arene]
bonding ability to NMP-BE [3]: almost no bonding ability | 1:1 binding affinity between SC5A and LCG [4]: 1.48 106 M−1

C=C1/C=C\C(=O)N(C)CC(=O)NC(C(O)C(N)=O)C(=O)OC(C(C)CCCCCCCCCCCC(C)C)C(C)C(=O)N1 (stereo not shown) [rakicidin A]
hypoxia-selective cytotoxicity [5]: moderate hypoxia-selective cytotoxicity

M-β-CD
cellular uptake relative to Ctrl (flow cytometry) in presence of endocytosis inhibitor (PANC1 cells [1]): 121.64 and 117.67 and 92.45 and 90.16
